Assay results as given in patent US10512265B2, “Pesticidally active heterocyclic derivatives with sulphur containing substituents” (Syngenta Participations AG, priority 2015, dated 2019).

How the values were obtained:
[1] = test system: Spodoptera littoralis (Egyptian cotton leaf worm); assay: Example B1: activity against Spodoptera littoralis, sprayed cotton leaf discs; format: in vivo; conditions: foliar, 72 h, application rate 200 ppm, L1 larvae, 3 days after infestation, read-out: control of Spodoptera littoralis (at least one of mortality, anti-feedant effect, growth inhibition)
Procedure: Example B1: Activity Against Spodoptera littoralis (Egyptian Cotton Leaf Worm)
Cotton leaf discs were placed on agar in 24-well microtiter plates and sprayed with aqueous test solutions prepared from 10′000 ppm DMSO stock solutions. After drying the leaf discs were infested with five L1 larvae. The samples were assessed for mortality, anti-feedant effect, and growth inhibition in comparison to untreated samples 3 days after infestation. Control of Spodoptera littoralis by a test sample is when at least one of mortality, anti-feedant effect, and growth inhibition is higher than the untreated sample.

[2] = test system: Plutella xylostella (diamond back moth); assay: Example B3: activity against Plutella xylostella, treated artificial diet; format: in vivo; conditions: 120 h, application rate 200 ppm, L2 larvae, 5 days after infestation, read-out: effect in at least one of the two categories (mortality or growth inhibition)
Procedure: Example B3: Activity Against Plutella xylostella (Diamond Back Moth)
(§1) 24-well microtiter plates with artificial diet were treated with aqueous test solutions prepared from 10′000 ppm DMSO stock solutions by pipetting. After drying, the plates were infested with L2 larvae (10 to 15 per well). The samples were assessed for mortality and growth inhibition in comparison to untreated samples 5 days after infestation.

[3] = test system: Diabrotica balteata (corn root worm); assay: Example B4: activity against Diabrotica balteata, sprayed maize sprouts; format: in vivo; conditions: 96 h, application rate 200 ppm, L2 larvae, 4 days after infestation, read-out: effect in at least one of the two categories (mortality or growth inhibition)
Procedure: Example B4: Activity Against Diabrotica Balteata (Corn Root Worm)
as §1, with “Maize sprouts, placed on an agar layer in 24-well” for “24-well”, “plates” for “plates with artificial diet”, “spraying.” for “pipetting.”, “(6” for “(10”, “10” for “15”, “4” for “5”

[4] = test system: Aedes aegypti (yellow fever mosquito); assay: Example B11: activity against Aedes aegypti, dry deposits in tissue culture plates; format: in vivo; conditions: 200 ppm in ethanol, dry deposit, adult females, after 48 h and/or 24 h
Procedure: Example B11: Activity Against Aedes Aegypti (Yellow Fever Mosquito)
Test solutions, at an application rate of 200 ppm in ethanol, were applied to 12-well tissue culture plates. Once the deposits were dry, five, two to five days old adult female Aedes aegypti were added to each well, and sustained with a 10% sucrose solution in a cotton wool plug. Assessment of knockdown was made one hour after introduction, and mortality was assessed at 24 and 48 hours after introduction.

[5] = test system: Euschistus heros (neotropical brown stink bug); assay: Example B9: activity against Euschistus heros, sprayed soybean leaf; format: in vivo; conditions: 120 h, application rate 200 ppm, N-2 nymphs, 5 days after infestation, read-out: effect in at least one of the two categories (mortality or growth inhibition)
Procedure: Example B9: Activity Against Euschistus heros(Neotropical Brown Stink Bug)
Soybean leaf on agar in 24-well microtiter plates were sprayed with aqueous test solutions prepared from 10′000 ppm DMSO stock solutions. After drying the leaf were infested with N-2 nymphs. The samples were assessed for mortality and growth inhibition in comparison to untreated samples 5 days after infestation.

[6] = test system: Myzus persicae (green peach aphid); assay: Example B5: activity against Myzus persicae, sprayed sunflower leaf discs; format: in vivo; conditions: foliar, 144 h, application rate 200 ppm, aphid population of mixed ages, 6 days after infestation
Procedure: Example B5: Activity Against Myzus persicae (Green Peach Aphid)
(§2) Sunflower leaf discs were placed on agar in a 24-well microtiter plate and sprayed with aqueous test solutions prepared from 10′000 ppm DMSO stock solutions. After drying, the leaf discs were infested with an aphid population of mixed ages. The samples were assessed for mortality 6 days after infestation.

[7] = test system: Spodoptera littoralis (Egyptian cotton leaf worm); assay: Example B2: activity against Spodoptera littoralis, systemic via lettuce grown on treated agar; format: in vivo; conditions: 144 h, test rate 12.5 ppm, in agar, uptake by lettuce roots, Spodoptera eggs, 6 days after infestation, read-out: effect in at least one of the three categories (mortality, anti-feedancy, or growth inhibition)
Excerpt: Example B2: Activity Against Spodoptera littoralis (Egyptian Cotton Leaf Worm)
Test compounds were applied by pipette from 10′000 ppm DMSO stock solutions into 24-well plates and mixed with agar. Lettuce seeds were placed on the agar and the multi well plate was closed by another plate which contains also agar. After 7 days the roots have absorbed the compound and the lettuce has grown into the lid plate. The lettuce leafs were now cut off into the lid plate. Spodoptera eggs were pipetted through a plastic stencil on a humid gel blotting paper and the plate closed with it.
The samples were assessed for mortality, anti-feedant effect and growth inhibition in comparison to untreated samples 6 days after infestation.

[8] = test system: Myzus persicae (green peach aphid); assay: Example B6: activity against Myzus persicae, roots of pea seedlings in test solution; format: in vivo; conditions: 144 h, test rate 24 ppm, roots of infested pea seedlings in test solution, 6 days
Procedure: Example B6: Activity Against Myzus persicae (Green Peach Aphid)
Roots of pea seedlings infested with an aphid population of mixed ages were placed directly in the aqueous test solutions prepared from 10′000 DMSO stock solutions. The samples were assessed for mortality 6 days after placing seedlings in test solutions.

[9] = test system: Frankliniella occidentalis (western flower thrips); assay: Example B7: activity against Frankliniella occidentalis, sprayed sunflower leaf discs; format: in vivo; conditions: foliar, 168 h, application rate 200 ppm, population of mixed ages, 7 days after infestation
Procedure: Example B7: Activity Against Frankliniella occidentalis (Western Flower Thrips)
as §2, with “in” for “in a”, “plates” for “plate”, “[…]” for “10′000 ppm”, “drying” for “drying,”, “a Frankliniella” for “an aphid”, “7” for “6”

[10] = test system: Bemisia tabaci (cotton white fly); assay: Example B8: activity against Bemisia tabaci, sprayed cotton leaf discs; format: in vivo; conditions: foliar, 144 h, application rate 200 ppm, adult white flies, 6 days after incubation
Procedure: Example B8: Activity Against Bemisia tabaci (Cotton White Fly)
Cotton leaf discs were placed on agar in 24-well microtiter plates and sprayed with aqueous test solutions prepared from 10′000 ppm DMSO stock solutions. After drying the leaf discs were infested with adult white flies. The samples were checked for mortality 6 days after incubation.

[11] = test system: Tetranychus urticae (two-spotted spider mite); assay: Example B10: activity against Tetranychus urticae, sprayed bean leaf discs; format: in vivo; conditions: foliar, 192 h, application rate 200 ppm, mixed population (mobile stages), 8 days after infestation
Procedure: Example B10: Activity Against Tetranychus urticae (Two-Spotted Spider Mite)
Bean leaf discs on agar in 24-well microtiter plates were sprayed with aqueous test solutions prepared from 10′000 ppm DMSO stock solutions. After drying the leaf discs were infested with a mite population of mixed ages. The samples were assessed for mortality on mixed population (mobile stages) 8 days after infestation.

Row | Structure (SMILES) | mortality at 200 ppm [1] [%] | percent effect (mortality or growth inhibition) at 200 ppm [2] [%] | percent effect (mortality or growth inhibition) at 200 ppm [3] [%] | pest or weed control at 200 ppm [4] [%] | percent effect (mortality or growth inhibition) at 200 ppm [5] [%] | mortality at 200 ppm [6] [%] | percent control (mortality, anti-feedancy or growth inhibition) at 12.5 ppm [7] [%] | mortality at 24 ppm [8] [%] | mortality at 200 ppm [9] [%] | melting point [°C] | mortality at 200 ppm [10] [%] | mortality at 200 ppm [11] [%]
1 | CCS(=O)(=O)c1cc(-c2ccc(Cl)cc2)cnc1-c1ncc(-c2cccc(SC(F)(F)F)c2)n1C [Compound P13] | ≥ 80 | ≥ 80 | ≥ 80 |  |  |  |  |  |  |  |  | 
2 | CCS(=O)(=O)c1cc(-c2ccc(Cl)cc2)cnc1-c1ncc(-c2ccc(SC(F)(F)F)cc2)n1C [Compound P7] | ≥ 80 | ≥ 80 | ≥ 80 | ≥ 80 |  |  |  |  |  |  |  | 
3 | CCS(=O)(=O)c1cc(-c2ncc(Cl)cn2)cnc1-c1ncc(-c2ccc(C(F)(F)F)nc2)n1C [Compound P11] | ≥ 80 | ≥ 80 | ≥ 80 | ≥ 80 | ≥ 80 | ≥ 80 | ≥ 80 |  |  |  |  | 
4 | CCS(=O)(=O)c1cc(-c2ncccn2)cnc1-c1ncc(-c2cncc(C(F)(F)F)c2)n1C [Compound P10] | ≥ 80 | ≥ 80 | ≥ 80 |  | ≥ 80 | ≥ 80 | ≥ 80 | ≥ 80 | ≥ 80 |  |  | 
5 | CCS(=O)(=O)c1cc(-c2ccc(Cl)cc2)cnc1-c1ncc(-c2ccc(S(=O)(=O)C(F)(F)F)cc2)n1C [Compound P9] | ≥ 80 | ≥ 80 | ≥ 80 | ≥ 80 |  |  |  |  |  |  |  | 
6 | CCS(=O)(=O)c1cc(-c2ncccn2)cnc1-c1ncc(-c2cnc(C(F)(F)F)nc2)n1C [Compound P15] |  |  |  |  |  |  |  |  |  | 231 to 233 |  | 
7 | CCS(=O)(=O)c1cc(-c2ccc(F)cc2)cnc1-c1ncc(-c2ccc(F)cc2)n1C [Compound P4] | ≥ 80 | ≥ 80 | ≥ 80 |  |  | ≥ 80 | ≥ 80 |  |  |  | ≥ 80 | 
8 | CCS(=O)(=O)c1cc(-c2ccc(Cl)cc2)cnc1-c1ncc(-c2ccc(C(F)(F)F)cc2)n1C [Compound P12] | ≥ 80 | ≥ 80 | ≥ 80 | ≥ 80 |  |  |  |  | ≥ 80 |  |  | 
9 | CCS(=O)(=O)c1cc(-c2cccc(F)c2)cnc1-c1ncc(-c2ccc(C(F)(F)F)nc2)n1C [Compound P16] |  |  |  |  |  |  |  |  |  | 170 to 172 |  | 
10 | CCS(=O)(=O)c1cc(-c2cccc(F)c2)cnc1-c1ncc(-c2cnc(C(F)(F)F)nc2)n1C [Compound P17] |  |  |  |  |  |  |  |  |  | 193 to 195 |  | 
11 | CCS(=O)(=O)c1cc(-c2ccc(C(F)(F)F)cc2)cnc1-c1ncc(-c2ccc(C(F)(F)F)cc2)n1C [Compound P2, 3-ethylsulfonyl-2-[1-methyl-5-[4-(trifluoromethyl)phenyl]imidazol-2-yl]-5-[4-(trifluoromethyl)phenyl]pyridine] | ≥ 80 | ≥ 80 | ≥ 80 | ≥ 80 |  |  |  |  | ≥ 80 |  |  | 
12 | CCS(=O)(=O)c1cc(-c2ccc(Cl)cc2)cnc1-c1ncc(-c2ccc(C(F)(F)F)nc2)n1C [Compound P5] | ≥ 80 | ≥ 80 | ≥ 80 | ≥ 80 | ≥ 80 | ≥ 80 |  |  | ≥ 80 |  |  | 
13 | CCS(=O)(=O)c1cc(-c2ncccn2)cnc1-c1ncc(-c2ccc(C(F)(F)F)nc2)n1C [Compound P8] | ≥ 80 | ≥ 80 | ≥ 80 |  | ≥ 80 | ≥ 80 | ≥ 80 | ≥ 80 | ≥ 80 |  |  | 
14 | CCS(=O)(=O)c1cc(-c2ncc(Cl)cn2)cnc1-c1ncc(-c2cnc(C(F)(F)F)nc2)n1C [Compound P14] |  |  |  |  |  |  |  |  |  | 224 to 226 |  | 
15 | CCS(=O)(=O)c1cc(-c2ccccc2)cnc1-c1ncc(-c2ccc(C(F)(F)F)nc2)n1C [Compound P6] | ≥ 80 | ≥ 80 | ≥ 80 |  |  | ≥ 80 | ≥ 80 |  | ≥ 80 |  |  | 
16 | CCS(=O)(=O)c1cc(-c2ccc(F)cc2)cnc1-c1ncc(-c2ccc(C(F)(F)F)nc2)n1C [Compound P3, 3-ethylsulfonyl-5-(4-fluorophenyl)-2-[1-methyl-5-[6-(trifluoromethyl)-3-pyridyl]imidazol-2-yl]pyridine] | ≥ 80 | ≥ 80 | ≥ 80 | ≥ 80 |  | ≥ 80 | ≥ 80 |  | ≥ 80 |  |  | ≥ 80
17 | CCS(=O)(=O)c1cc(-c2cccc(F)c2)cnc1-c1ncc(-c2cncc(C(F)(F)F)c2)n1C [Compound P18] |  |  |  |  |  |  |  |  |  | 155 to 157 |  | 
18 | CCS(=O)(=O)c1cc(-c2ccc(C(F)(F)F)cc2)cnc1-c1ncc(-c2ccc(C(F)(F)F)nc2)n1C [Compound P1, 3-ethylsulfonyl-2-[1-methyl-5-[6-(trifluoromethyl)-3-pyridyl]imidazol-2-yl]-5-[4-(trifluoromethyl)phenyl]pyridine] | ≥ 80 | ≥ 80 | ≥ 80 | ≥ 80 | ≥ 80 |  |  |  | ≥ 80 |  |  | 
